Data reported in PubChem BioAssay (NCI).
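These data come from cells grown in 96-well plates and exposed to compound for 48 hours at five concentrations. Here, GI50 denotes the concentration required for 50% inhibition of growth. The concentration for full growth arrest is given as TGI.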

Key:
Assay in all cases: inhibition of tumour cell growth, NCI panel, 48 h
OVCAR-3 ovarian = system: OVCAR-3 ovarian
M14 melanoma = system: M14 melanoma
786-0 renal = system: 786-0 renal
MOLT-4 leukemia = system: MOLT-4 leukemia
HCT-15 colon = system: HCT-15 colon
HOP-62 NSCLC = system: HOP-62 NSCLC
NCI-H460 lung = system: NCI-H460 lung
OVCAR-8 ovarian = system: OVCAR-8 ovarian
SR leukemia = system: SR leukemia
MCF7 breast = system: MCF7 breast
SF-295 CNS = system: SF-295 CNS
SK-MEL-2 melanoma = system: SK-MEL-2 melanoma
KM12 colon = system: KM12 colon
MDA-MB-435 = system: MDA-MB-435
K-562 leukemia = system: K-562 leukemia
HS 578T breast = system: HS 578T breast
LOX IMVI melanoma = system: LOX IMVI melanoma
SW-620 colon = system: SW-620 colon
DU-145 prostate = system: DU-145 prostate
SF-268 CNS = system: SF-268 CNS
OVCAR-4 ovarian = system: OVCAR-4 ovarian
SNB-19 CNS = system: SNB-19 CNS
HT29 colon = system: HT29 colon
SK-OV-3 ovarian = system: SK-OV-3 ovarian
SN12C renal = system: SN12C renal
CAKI-1 renal = system: CAKI-1 renal
RXF 393 renal = system: RXF 393 renal
U251 CNS = system: U251 CNS
RPMI-8226 leukemia = system: RPMI-8226 leukemia
COLO 205 colon = system: COLO 205 colon
NCI/ADR-RES ovarian = system: NCI/ADR-RES ovarian
UACC-62 melanoma = system: UACC-62 melanoma
SNB-75 CNS = system: SNB-75 CNS
IGROV1 ovarian = system: IGROV1 ovarian
UACC-257 melanoma = system: UACC-257 melanoma
CCRF-CEM leukemia = system: CCRF-CEM leukemia
MDA-MB-231 breast = system: MDA-MB-231 breast
NCI-H226 lung = system: NCI-H226 lung
HCT-116 colon = system: HCT-116 colon
OVCAR-5 ovarian = system: OVCAR-5 ovarian
SK-MEL-5 melanoma = system: SK-MEL-5 melanoma
SF-539 CNS = system: SF-539 CNS
HCC-2998 colon = system: HCC-2998 colon
A549 NSCLC = system: A549 NSCLC
HL-60(TB) leukemia = system: HL-60(TB) leukemia
PC-3 prostate = system: PC-3 prostate
UO-31 renal = system: UO-31 renal
NCI-H522 lung = system: NCI-H522 lung
SK-MEL-28 melanoma = system: SK-MEL-28 melanoma
BT-549 breast = system: BT-549 breast

Compound COc1nc2c(cc1S(=O)(=O)c1ccccc1)CCc1c-2cnn1-c1ccccc1Cl has a GI50 (OVCAR-3 ovarian) of 8.17 µM, a TGI (OVCAR-3 ovarian) greater than 100 µM and a GI50 (M14 melanoma) greater than 100 µM. The TGI (M14 melanoma) was greater than 100 µM, the GI50 (786-0 renal) was 7.28 µM and the TGI (786-0 renal) was greater than 100 µM. For the same compound, the GI50 (MOLT-4 leukemia) was 4.76 µM, the TGI (MOLT-4 leukemia) was greater than 100 µM and the GI50 (HCT-15 colon) was 6.24 µM. For the same compound, the TGI (HCT-15 colon) was greater than 100 µM, the GI50 (HOP-62 NSCLC) was greater than 100 µM and the TGI (HOP-62 NSCLC) was greater than 100 µM. The GI50 (NCI-H460 lung) was 26.3 µM, the TGI (NCI-H460 lung) was greater than 100 µM and the GI50 (OVCAR-8 ovarian) was 8.7 µM. For the same compound, the TGI (OVCAR-8 ovarian) was greater than 100 µM, the GI50 (SR leukemia) was 5.01 µM and the TGI (SR leukemia) was greater than 100 µM. The GI50 (MCF7 breast) was 4.13 µM, the TGI (MCF7 breast) was greater than 100 µM and the GI50 (SF-295 CNS) was 5.72 µM. It also gave a TGI (SF-295 CNS) greater than 100 µM, a GI50 (SK-MEL-2 melanoma) of 71.7 µM and a TGI (SK-MEL-2 melanoma) greater than 100 µM. For the same compound, the GI50 (KM12 colon) was 4.49 µM, the TGI (KM12 colon) was greater than 100 µM and the GI50 (MDA-MB-435) was 8.94 µM. For the same compound, the TGI (MDA-MB-435) was greater than 100 µM, the GI50 (K-562 leukemia) was 5.23 µM and the TGI (K-562 leukemia) was greater than 100 µM. It also gave a GI50 (HS 578T breast) of 4.7 µM, a TGI (HS 578T breast) greater than 100 µM and a GI50 (LOX IMVI melanoma) greater than 100 µM. For the same compound, the TGI (LOX IMVI melanoma) was greater than 100 µM, the GI50 (SW-620 colon) was greater than 100 µM and the TGI (SW-620 colon) was greater than 100 µM. The GI50 (DU-145 prostate) was greater than 100 µM, the TGI (DU-145 prostate) was greater than 100 µM and the GI50 (SF-268 CNS) was 17 µM. The TGI (SF-268 CNS) was greater than 100 µM, the GI50 (OVCAR-4 ovarian) was 7.3 µM and the TGI (OVCAR-4 ovarian) was greater than 100 µM. It also gave a GI50 (SNB-19 CNS) of 7.25 µM, a TGI (SNB-19 CNS) greater than 100 µM and a GI50 (HT29 colon) of 4.73 µM. The TGI (HT29 colon) was greater than 100 µM, the GI50 (SK-OV-3 ovarian) was greater than 100 µM and the TGI (SK-OV-3 ovarian) was greater than 100 µM. It also gave a GI50 (SN12C renal) of 19.6 µM, a TGI (SN12C renal) greater than 100 µM and a GI50 (CAKI-1 renal) of 5.2 µM. It also gave a TGI (CAKI-1 renal) greater than 100 µM, a GI50 (RXF 393 renal) of 6.74 µM and a TGI (RXF 393 renal) greater than 100 µM. For the same compound, the GI50 (U251 CNS) was 5.94 µM, the TGI (U251 CNS) was greater than 100 µM and the GI50 (RPMI-8226 leukemia) was 5.39 µM. For the same compound, the TGI (RPMI-8226 leukemia) was greater than 100 µM, the GI50 (COLO 205 colon) was 9.07 µM and the TGI (COLO 205 colon) was greater than 100 µM. The GI50 (NCI/ADR-RES ovarian) was 8.24 µM, the TGI (NCI/ADR-RES ovarian) was greater than 100 µM and the GI50 (UACC-62 melanoma) was 7.29 µM. It also gave a TGI (UACC-62 melanoma) greater than 100 µM, a GI50 (SNB-75 CNS) of 5.19 µM and a TGI (SNB-75 CNS) greater than 100 µM. The GI50 (IGROV1 ovarian) was greater than 100 µM, the TGI (IGROV1 ovarian) was greater than 100 µM and the GI50 (UACC-257 melanoma) was 21.8 µM. The TGI (UACC-257 melanoma) was greater than 100 µM, the GI50 (CCRF-CEM leukemia) was 7.84 µM and the TGI (CCRF-CEM leukemia) was greater than 100 µM. The GI50 (MDA-MB-231 breast) was 5.16 µM, the TGI (MDA-MB-231 breast) was greater than 100 µM and the GI50 (NCI-H226 lung) was 4.91 µM. It also gave a TGI (NCI-H226 lung) greater than 100 µM, a GI50 (HCT-116 colon) of 5.31 µM and a TGI (HCT-116 colon) greater than 100 µM. For the same compound, the GI50 (OVCAR-5 ovarian) was greater than 100 µM, the TGI (OVCAR-5 ovarian) was greater than 100 µM and the GI50 (SK-MEL-5 melanoma) was 3.31 µM. For the same compound, the TGI (SK-MEL-5 melanoma) was greater than 100 µM, the GI50 (SF-539 CNS) was greater than 100 µM and the TGI (SF-539 CNS) was greater than 100 µM. It also gave a GI50 (HCC-2998 colon) greater than 100 µM, a TGI (HCC-2998 colon) greater than 100 µM and a GI50 (A549 NSCLC) of 4.97 µM. It also gave a TGI (A549 NSCLC) greater than 100 µM, a GI50 (HL-60(TB) leukemia) of 4.98 µM and a TGI (HL-60(TB) leukemia) greater than 100 µM. For the same compound, the GI50 (PC-3 prostate) was 3.09 µM, the TGI (PC-3 prostate) was greater than 100 µM and the GI50 (UO-31 renal) was 3.13 µM. The TGI (UO-31 renal) was greater than 100 µM, the GI50 (NCI-H522 lung) was 3.02 µM and the TGI (NCI-H522 lung) was greater than 100 µM. For the same compound, the GI50 (SK-MEL-28 melanoma) was greater than 100 µM, the TGI (SK-MEL-28 melanoma) was greater than 100 µM and the GI50 (BT-549 breast) was 3.49 µM. The TGI (BT-549 breast) was greater than 100 µM.
